# Experimental data taken from the supplement of paper PMC10307832.
# Legend:
# Assay in all cases: relative viability (nuclei count vs DMSO), 5 days (fraction); higher = more cells survive
# RAF265 + OSI-027 = compound: Cn1c(Nc2ccc(C(F)(F)F)cc2)nc2cc(Oc3ccnc(-c4ncc(C(F)(F)F)[nH]4)c3)ccc21 [RAF265] + COc1cccc2cc(-c3nc([C@H]4CC[C@H](C(=O)O)CC4)n4ncnc(N)c34)[nH]c12 [OSI-027] (partner 0.5 µM)
# Procedure, shortened: (§1)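 Relative viability was taken as the ratio of nuclei in treated wells to nuclei in vehicle wells. Lung cancer cell lines in 1536-well plates received compounds by pin tool one day after seeding, either one drug alone or a fixed anchor-drug dose plus five library-drug doses (not always all listed) in √10 steps. Nuclei were counted on 4× images after 5 days of treatment, and values are medians of duplicate plates.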
# RAF265 + Crizotinib = compound: Cn1c(Nc2ccc(C(F)(F)F)cc2)nc2cc(Oc3ccnc(-c4ncc(C(F)(F)F)[nH]4)c3)ccc21 [RAF265] + C[C@@H](Oc1cc(-c2cnn(C3CCNCC3)c2)cnc1N)c1c(Cl)ccc(F)c1Cl [Crizotinib] (partner 1 µM)
# Procedure, shortened: as §1
# RAF265 + Alpelisib = compound: Cn1c(Nc2ccc(C(F)(F)F)cc2)nc2cc(Oc3ccnc(-c4ncc(C(F)(F)F)[nH]4)c3)ccc21 [RAF265] + Cc1nc(NC(=O)N2CCC[C@H]2C(N)=O)sc1-c1ccnc(C(C)(C)C(F)(F)F)c1 [Alpelisib] (partner 2 µM)
# Procedure, shortened: as §1
# RAF265 + Foretinib = compound: Cn1c(Nc2ccc(C(F)(F)F)cc2)nc2cc(Oc3ccnc(-c4ncc(C(F)(F)F)[nH]4)c3)ccc21 [RAF265] + COc1cc2c(Oc3ccc(NC(=O)C4(C(=O)Nc5ccc(F)cc5)CC4)cc3F)ccnc2cc1OCCCN1CCOCC1 [Foretinib] (partner 0.25 µM)
# Procedure, shortened: as §1
Cell Line,relative viability (RAF265 + OSI-027; first compound 0.01 µM),relative viability (RAF265 + OSI-027; first compound 0.03162 µM),relative viability (RAF265 + OSI-027; first compound 0.1 µM),relative viability (RAF265 + OSI-027; first compound 0.3162 µM),relative viability (RAF265 + OSI-027; first compound 1 µM),relative viability (RAF265 + Crizotinib; first compound 0.01 µM),relative viability (RAF265 + Crizotinib; first compound 0.03162 µM),relative viability (RAF265 + Crizotinib; first compound 0.1 µM),relative viability (RAF265 + Crizotinib; first compound 0.3162 µM),relative viability (RAF265 + Crizotinib; first compound 1 µM),relative viability (RAF265 + Alpelisib; first compound 0.01 µM),relative viability (RAF265 + Alpelisib; first compound 0.03162 µM),relative viability (RAF265 + Alpelisib; first compound 0.1 µM),relative viability (RAF265 + Alpelisib; first compound 0.3162 µM),relative viability (RAF265 + Alpelisib; first compound 1 µM),relative viability (RAF265 + Foretinib; first compound 0.01 µM),relative viability (RAF265 + Foretinib; first compound 0.03162 µM),relative viability (RAF265 + Foretinib; first compound 0.1 µM),relative viability (RAF265 + Foretinib; first compound 0.3162 µM),relative viability (RAF265 + Foretinib; first compound 1 µM)
NCI-H522,0.79,0.741,0.655,0.541,0.628,,,,,,,,,,,,,,,
NCI-H1299,,,,,,0.966,0.95,0.93,0.703,0.645,0.981,1.06,0.966,0.589,0.616,1.12,0.863,1.08,1.07,0.749
NCI-H1395,0.72,0.571,0.638,0.537,0.487,,,,,,1.07,0.993,1.04,0.835,0.792,0.915,1.02,0.972,0.972,0.697
NCI-H1623,0.462,0.43,0.467,0.291,0.364,,,,,,,,,,,0.977,0.867,0.983,0.39,0.562
NCI-H1648,0.266,0.298,0.277,0.3,0.246,,,,,,,,,,,,,,,
NCI-H1650,0.631,0.598,0.8,0.456,0.649,1.03,0.83,1.15,0.877,0.913,,,,,,1.01,1.29,1.35,1.17,0.953
NCI-H1703,,,,,,0.567,0.512,0.581,0.449,0.195,0.213,0.298,0.251,0.274,0.206,0.335,0.318,0.351,0.357,0.253
NCI-H1792,0.681,0.691,0.72,0.444,0.25,1.01,0.989,0.977,0.839,0.419,0.668,0.663,0.668,0.518,0.168,,,,,
NCI-H1793,0.308,0.297,0.224,,0.188,,,,,,0.709,0.914,0.66,0.477,0.293,0.632,0.616,0.624,,0.261
NCI-H2342,0.598,0.722,0.598,0.525,0.514,,,,,,,,,,,1.11,1.06,1.12,0.992,0.968
SW 900,0.569,0.661,0.464,0.378,0.391,,,,,,,,,,,1.01,0.835,0.748,0.769,0.546
